{"source": "patent US12486334B2", "about": "“Chemically controlled monoclonal antibody target engagement” (The Regents of the University of California, priority 2019, dated 2025)", "key": {"[1]": {"test_system": "T-cells of PBMCs co-incubated with MiaPaca-2 (KRas G12C) cells", "assay": "T cell activation (CD3/CD69) by flow cytometry after 72 hr co-incubation", "format": "cell-based", "settings": "ARS1620, No Ab", "text": "MiaPaca-2 (KRas G12C) cells were pulsed with either DMSO or ARS-1620 in order to label proteins without exerting a direct pharmacological effect on the health of the cells. […] Following the 72 hr treatment, cells were stained for T-cell receptors (CD3) and T-cell activation (CD69) and analyzed by flow cytometry."}, "wild type KRas": {"molecular_target": "wild type KRas (Homo sapiens, UniProt P01116)", "settings": "Visscher et al. 2016; cited from earlier work"}, "H358 (G12C+) cell lysate": {"test_system": "H358 (G12C+) cell lysate", "assay": "Western blot of cell lysate with P1A4 IgG", "format": "binding", "settings": "treated H358 (G12C+) cells"}, "[2]": {"test_system": "ARS-1620 labeled peptides eluted from KRas G12C cells", "assay": "Covalent capture ELISA of MHC eluted peptides (mild acid elution)", "format": "cell-based", "settings": "ARS-1620 treated KRas G12C samples, stained with P1A4 IgG", "text": "(§1) To test whether the cell surface exposed ARS-1620 was pMHC associated, a proximity ligation assay was used in which fluorescent signal is indicative of colocalization of ARS-1620 and MHC (FIG. 5). […] To test whether this colocalization was due to direct covalent reaction with MHC molecules already on the cell surface or due to traditional loading of intracellular MHCs with covalently modified intracellular peptides, a covalent capture ELISA was used to detect ARS-1620 labeled peptides eluted from cells by mild acid elution. A short acid treatment dissociates peptides from the pMHC on living cells, allowing capture of the presented peptides in the acidic buffer supernatant and subsequent covalent immobilization via their N-terminus for ELISA. […] The eluted peptides and peptides obtained from MHC immunoprecipitation are analyzed by mass spectrometry to precisely identify haptenized peptide sequences."}, "KRas G12C": {"molecular_target": "KRas G12C (Homo sapiens, UniProt P01116, G12C)", "settings": "Visscher et al. 2016; cited from earlier work"}, "[3]": {"test_system": "human H358 (G12C+) cells xenografted tumors", "assay": "H358 xenograft murine model, P1A4 IgG staining of harvested tumors by flow cytometry", "format": "in vivo, Mice", "description": "In order to test whether ARS-1620 is accessible and targetable on the surface of treated cells in more complex systems, an H358 xenograft murine model was utilized. Mice were xenografted with human H358 (G12C+) cells and treated with either DMSO (placebo), ARS-1620 (1× at 200 mg/kg, or 3× at 200 mg/kg daily), or AMG-510 (1× at 100 mg/kg)."}, "[4]": {"test_system": "colocalization of ARS-1620 and MHC in a KRas G12C cell line", "assay": "Proximity ligation assay (PLA)", "format": "cell-based", "settings": "not with atropisomer or DMSO", "text": "FIG. 5 is a schematic of the proximity ligation assay (PLA) for detecting colocalization of two antigens. […] Secondary antibodies are directed against the Fc region of the human or murine antibodies, and are attached to complimentary oligos used to assemble a complementary oligo for rolling circle amplification (RCA). Amplification only occurs if the two antigens are colocalized, and amplified oligos are detected with complimentary, fluorogenic oligos.\nas §1"}, "[5]": {"test_system": "KRas G12C cell lines (H358, MiaPaca-2, SW1573)", "assay": "Flow cytometry of cell-surface accessible ARS-1620 with P1A4", "format": "cell-based", "settings": "several KRas G12C cell lines compared to a wild type KRas cell line", "text": "Low background staining observed in the presence of DMSO treatment confirms that the interaction is ARS-1620 dependent."}}}
{"smiles": "C=CC(=O)N1CCN(c2ncnc3c(F)c(-c4c(O)cccc4F)c(Cl)cc23)CC1", "note": "(atropisomer, axis not shown) [ARS-1620]", "values": [{"measurement": "% CD3 + CD69+", "setting": "[1]", "value": 2.42, "unit": "%"}, {"measurement": "binding to wild type KRas lacking acquired cysteine", "setting": "wild type KRas", "value": "no appreciable binding"}, {"measurement": "off-targets of ARS-1620 detected by western blot with P1A4", "setting": "H358 (G12C+) cell lysate", "value": "additional off-targets"}, {"measurement": "ARS-1620 haptenized peptides in MHC eluted peptides", "setting": "[2]", "value": "readily detected"}, {"measurement": "specificity for KRas G12C over other cellular proteins", "setting": "KRas G12C", "value": "high specificity"}, {"measurement": "P1A4 IgG staining of xenografted tumor cells", "setting": "[3]; ARS-1620 1× at 200 mg/kg or 3× at 200 mg/kg daily", "value": "P1A4+ cell population emerged"}, {"measurement": "fluorescent signal (colocalization of ARS-1620 with MHC)", "setting": "[4]", "value": "detectable"}, {"measurement": "increase in cell surface ARS-1620", "setting": "[5]", "value": 10, "unit": "×"}]}
{"smiles": "C=CC(=O)N1CCN(c2nc(=O)n(-c3c(C)ccnc3C(C)C)c3nc(-c4c(O)cccc4F)c(F)cc23)[C@@H](C)C1", "note": "[AMG-510]", "values": [{"measurement": "P1A4 IgG staining of xenografted tumor cells", "setting": "[3]; AMG-510 1× at 100 mg/kg", "value": "no P1A4 staining"}]}
